# Reference: article PMC6934184, “Selective DNA-PKcs inhibition extends the therapeutic index of localized radiotherapy and chemotherapy” (The Journal of Clinical Investigation, 2019)
# Biological target: T1, FGFR1 V561M (Homo sapiens, UniProt P11362, V561M)
# T1 construct: purchased Thermo Fisher Scientific (Life Technologies) SelectScreen
# Assay: SelectScreen LanthaScreen
# Format: binding
# Conditions: read-out: % displacement
# Summary of the method: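 NU5455 was profiled across the SelectScreen Broad panel of kinase activity and binding assays. Z'LYTE reactions such as CSF1R ran at apparent Km ATP, while the Adapta CAMK1 assay used ATP listed as 10. Values are given as percent.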
# T1 sequence (P11362 22-822 V561M): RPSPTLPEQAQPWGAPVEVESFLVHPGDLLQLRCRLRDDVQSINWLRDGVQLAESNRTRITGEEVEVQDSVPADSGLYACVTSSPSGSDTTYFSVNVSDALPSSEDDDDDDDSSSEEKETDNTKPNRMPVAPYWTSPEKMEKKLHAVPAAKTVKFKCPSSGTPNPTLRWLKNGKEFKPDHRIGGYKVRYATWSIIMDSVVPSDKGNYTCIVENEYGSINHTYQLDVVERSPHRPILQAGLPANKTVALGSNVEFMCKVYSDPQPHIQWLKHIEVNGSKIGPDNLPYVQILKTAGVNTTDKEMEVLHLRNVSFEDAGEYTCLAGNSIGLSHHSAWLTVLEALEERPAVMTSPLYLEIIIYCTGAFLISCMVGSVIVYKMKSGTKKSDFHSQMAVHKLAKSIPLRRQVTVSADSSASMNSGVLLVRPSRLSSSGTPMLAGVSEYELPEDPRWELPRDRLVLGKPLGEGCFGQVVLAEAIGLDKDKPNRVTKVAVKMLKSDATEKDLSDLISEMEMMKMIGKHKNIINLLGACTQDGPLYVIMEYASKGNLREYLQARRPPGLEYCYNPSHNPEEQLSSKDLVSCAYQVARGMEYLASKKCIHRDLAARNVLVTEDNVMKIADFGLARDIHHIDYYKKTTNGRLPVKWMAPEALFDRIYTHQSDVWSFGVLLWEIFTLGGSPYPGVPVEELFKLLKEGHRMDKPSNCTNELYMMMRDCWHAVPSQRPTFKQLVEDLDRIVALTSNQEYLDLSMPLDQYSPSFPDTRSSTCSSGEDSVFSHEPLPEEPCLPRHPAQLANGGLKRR
smiles,measurement,value
CN(C(=O)CN1CCOCC1)c1ccc2sc3c(-c4cccc5c(=O)cc(N6CC7CCC(C6)O7)oc45)cccc3c2c1 [NU5455],inhibition at 1 µM,5.1%
